From US20260327191A1, “GSK3a INHIBITORS AND METHODS OF USE THEREOF” (Blueprint Medicines Corporation, priority 2023, published 2026) come the findings set out here.

A word on the IC50: it is the concentration at which inhibition is half-maximal.

Like-named read-outs stand apart in the source and are kept apart here.

One assay has as its target T1, human GSK3α (Homo sapiens, UniProt P49840).
T1 construct: Full length human GSK3α or GSK3B expressed as N-terminal GST fusion proteins; GST (N); purchased Carna Biosciences (Japan); host or cells: baculovirus host
Description: In vitro enzymatic activity assay, GSK3α. Format: biochemical. To be noted: 1.0 mM ATP, 1.0 μM peptide substrate, 120 min, 25° C. As to the method:
(§1) Full length human GSK3α or GSK3B expressed as N-terminal GST fusion proteins in baculovirus host were purchased from Carna Biosciences (Japan). The kinase was pre-incubated with ATP (adenosine-5′-triphosphate) for 45 min, then incubated with tested compounds for another 45 min in assay buffer that contains 100 mM HEPES (N-2-hydroxyethylpiperazine-N′-2-ethanesulfonic acid), pH 7.5, 10 mM MgCl2, 1.0 mM DTT, and 0.015% Briji-35. […] Percent inhibition was plotted against compound concentration to generate 10-point dose response curve with 3-fold serial dilution starting from 10 μM. IC50 value was determined from the 4-parameter logistic curve fitting.

Another assay has as its target T2, GSK3A (Homo sapiens, UniProt P49840).
T2 construct: expressed in transfected cells
Description: NanoBRET cellular target engagement assay, Nanoluc-GSK3A in HEK293 cells. It is filed as cell-based. To be noted: NanoBRET GSK3α IC50, HEK293 cells, tracer K-8, 2 hours, 37° C. As to the method: (§2) In the assay, HEK293 cells stably expressing either Nanoluc-GSK3A or Nanoluc-GSK3B were maintained in culture media and seeded, using a multidrop dispenser, at a density of 5×10^3 cells per well in 384-well white plates with 100 ng/ml doxycycline (Sigma) overnight.
(§3) Compound was first diluted in DMSO to generate a 9-point serial dilution then diluted to 10× final concentration in Opti-MEM™ (Gibco). After overnight incubation, cell medium was aspirated from the seeded cells using a microplate automatic washer, then 27 μL of pre-warmed Opti-MEM™ with kinase tracer (K-8) and 3 μL of Opti-MEM™ diluted DMSO or compounds were added per well. Plates were protected from light, mixed in an orbital shaker for 3 min at RT and incubated at 37° C., 5% CO2 in a humidified incubator for 2 hours. After acclimation at RT for 15 min, 15 μL of 3× complete NanoBRET™ Nano-Glo Substrate/Inhibitor (Promega) was added per well. Plates were mixed in an orbital shaker for 3 min at RT and incubated for an additional 30 min. Donor emission at 460 nm and acceptor emission at 647 nm were measured in EnVision multilabel plate reader (Perkin Elmer).
(Bioluminescence resonance energy transfer reports proximity on the nanometre scale.)

For assay [1], the target named is T3, GSK3B (Homo sapiens, UniProt P49841). Description: NanoBRET cellular target engagement assay, Nanoluc-GSK3B in HEK293 cells. To be noted: NanoBRET GSK3β IC50, HEK293 cells, tracer K-8, 2 hours, 37° C. More on the design: expressed in transfected cells. It is filed as cell-based. How it is done: as §2, §3
T3 sequence (P49841 whole entry, the tested form may be a part): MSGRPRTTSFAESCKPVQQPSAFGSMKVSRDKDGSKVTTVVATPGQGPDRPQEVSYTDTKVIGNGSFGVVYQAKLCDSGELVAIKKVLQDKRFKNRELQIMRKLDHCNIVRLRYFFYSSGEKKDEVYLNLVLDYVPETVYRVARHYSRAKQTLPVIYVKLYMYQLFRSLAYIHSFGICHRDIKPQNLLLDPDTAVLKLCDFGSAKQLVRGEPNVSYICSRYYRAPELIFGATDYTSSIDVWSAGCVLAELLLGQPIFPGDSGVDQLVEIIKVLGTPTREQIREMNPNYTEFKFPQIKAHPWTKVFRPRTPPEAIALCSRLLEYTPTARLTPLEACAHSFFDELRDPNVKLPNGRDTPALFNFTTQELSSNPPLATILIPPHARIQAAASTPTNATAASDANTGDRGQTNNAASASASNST
Assay [2] deals with T3, GSK3B. The assay is described as follows: In vitro enzymatic activity assay, GSK3β. Format: biochemical. More on the design: Full length human GSK3α or GSK3B expressed as N-terminal GST fusion proteins; GST (N); purchased Carna Biosciences (Japan); host or cells: baculovirus host. As to conditions: 1.0 mM ATP, 1.0 μM peptide substrate, 120 min, 25° C. How it is done: as §1

T1 sequence (P49840 whole entry, the tested form may be a part): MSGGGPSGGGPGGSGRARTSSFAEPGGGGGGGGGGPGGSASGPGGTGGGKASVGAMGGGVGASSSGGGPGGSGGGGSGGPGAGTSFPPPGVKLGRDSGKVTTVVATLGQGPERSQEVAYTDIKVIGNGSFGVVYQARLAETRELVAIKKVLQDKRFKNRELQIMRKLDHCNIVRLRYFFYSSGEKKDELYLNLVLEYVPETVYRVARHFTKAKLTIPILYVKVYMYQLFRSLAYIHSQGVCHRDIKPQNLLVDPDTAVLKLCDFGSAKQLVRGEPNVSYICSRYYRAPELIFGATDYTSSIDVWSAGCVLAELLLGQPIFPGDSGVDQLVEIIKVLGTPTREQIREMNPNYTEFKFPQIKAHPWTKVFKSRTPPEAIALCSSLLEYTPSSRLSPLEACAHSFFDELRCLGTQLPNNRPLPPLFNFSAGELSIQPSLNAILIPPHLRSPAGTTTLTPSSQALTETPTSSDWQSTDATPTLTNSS
T2 sequence (P49840 whole entry): as the sequence (P49840 whole entry, the tested form may be a part) above

As to `CNCc1cncc(NC(=O)c2c(N)ncn(-c3c(Cl)cc(C(F)CF)cc3Cl)c2=O)c1` (single isomer, unassigned) [Example 117, (R)-4-amino-1-(2,6-dichloro-4-(1,2-difluoroethyl)phenyl)-N-(5-((methylamino)methyl)pyridin-3-yl)-6-oxo-1,6-dihydropyrimidine-5-carboxamide or (S)-4-amino-1-(2,6-dichloro-4-(1,2-difluoroethyl)phenyl)-N-(5-((methylamino)methyl)pyridin-3-yl)-6-oxo-1,6-dihydropyrimidine-5-carboxamide], the IC50 worked out at 2.2 nM on human GSK3α (read-out: Enzyme GSK3α (IC50)), 1.4 nM against GSK3A, 81.1 nM against GSK3B [1] and 104 nM on GSK3B [2] (read-out: Enzyme GSK3β (IC50)).

Regarding `CCOc1cc(Cl)c(-n2cnc(N)c(C(=O)Nc3cncc(C(C)N)c3)c2=O)c(Cl)c1` (single isomer, unassigned) [Example 142, (R)-4-amino-N-(5-(1-aminoethyl)pyridin-3-yl)-1-(2,6-dichloro-4-ethoxyphenyl)-6-oxo-1,6-dihydropyrimidine-5-carboxamide or (S)-4-amino-N-(5-(1-aminoethyl)pyridin-3-yl)-1-(2,6-dichloro-4-ethoxyphenyl)-6-oxo-1,6-dihydropyrimidine-5-carboxamide], the half-inhibitory concentration (IC50) on human GSK3α (read-out: Enzyme GSK3α (IC50)) is 9.8 nM; against GSK3A, 4.7 nM; against GSK3B [1], 350 nM; at GSK3B [2] (read-out: Enzyme GSK3β (IC50)), 421 nM.

Turning to `COc1cc(Cl)c(-n2cnc(N)c(C(=O)Nc3cncc([C@@H](N)C(F)F)c3)c2=O)c(Cl)c1` (single isomer, unassigned) [Example 204, (R)-4-amino-N-(5-(1-amino-2,2-difluoroethyl)pyridin-3-yl)-1-(2,6-dichloro-4-methoxyphenyl)-6-oxo-1,6-dihydropyrimidine-5-carboxamide or (S)-4-amino-N-(5-(1-amino-2,2-difluoroethyl)pyridin-3-yl)-1-(2,6-dichloro-4-methoxyphenyl)-6-oxo-1,6-dihydropyrimidine-5-carboxamide], the IC50 on human GSK3α (read-out: Enzyme GSK3α (IC50)) was 13.5 nM; at GSK3A, 8.8 nM; against GSK3B [1], 782 nM; on GSK3B [2] (read-out: Enzyme GSK3β (IC50)) it was 706 nM.

Take `COC[C@@H](N)c1cccc(NC(=O)c2c(N)ncn(-c3c(Cl)cccc3C(F)F)c2=O)c1` (atropisomer, axis not shown) [Example 7, (S)-4-amino-N-(3-(1-amino-2-methoxyethyl)phenyl)-1-((S)-2-chloro-6-(difluoromethyl)phenyl)-6-oxo-1,6-dihydropyrimidine-5-carboxamide]: the IC50 on human GSK3α (read-out: Enzyme GSK3α (IC50)) is 7.5 nM; on GSK3A, 7.1 nM; against GSK3B [1], 480 nM; on GSK3B [2] (read-out: Enzyme GSK3β (IC50)), 337 nM.

As to `COCc1cc(C)c(-n2cnc(N)c(C(=O)Nc3cncc([C@H]4CCC[C@H](C)N4)c3)c2=O)c(C)c1` (single isomer, unassigned) [Example 102], the IC50 on human GSK3α (read-out: Enzyme GSK3α (IC50)) stood at 16.5 nM; against GSK3A it was 5 nM; against GSK3B [1] it was 584 nM; at GSK3B [2] (read-out: Enzyme GSK3β (IC50)) it was 684 nM.

Turning to `CNC(C)c1cncc(NC(=O)c2c(N)ncn(-c3c(Cl)cc(C#N)cc3Cl)c2=O)c1` (single isomer, unassigned) [Example 9, (R)-4-amino-1-(2,6-dichloro-4-cyanophenyl)-N-(5-(1-(methylamino)ethyl)pyridin-3-yl)-6-oxo-1,6-dihydropyrimidine-5-carboxamide or (S)-4-amino-1-(2,6-dichloro-4-cyanophenyl)-N-(5-(1-(methylamino)ethyl)pyridin-3-yl)-6-oxo-1,6-dihydropyrimidine-5-carboxamide], the IC50 on human GSK3α (read-out: Enzyme GSK3α (IC50)) turned out to be 9.5 nM; on GSK3A it was 7.4 nM; at GSK3B [1], 430 nM; at GSK3B [2] (read-out: Enzyme GSK3β (IC50)), 661 nM.

In the case of `CCOCc1cc(C)c(-n2cnc(N)c(C(=O)Nc3cncc(C(C)N)c3)c2=O)c(C)c1` (single isomer, unassigned) [Example 130, (R)-4-amino-N-(5-(1-aminoethyl)pyridin-3-yl)-1-(4-(ethoxymethyl)-2,6-dimethylphenyl)-6-oxo-1,6-dihydropyrimidine-5-carboxamide or (S)-4-amino-N-(5-(1-aminoethyl)pyridin-3-yl)-1-(4-(ethoxymethyl)-2,6-dimethylphenyl)-6-oxo-1,6-dihydropyrimidine-5-carboxamide], the IC50 on human GSK3α (read-out: Enzyme GSK3α (IC50)) was 13.5 nM; against GSK3A, 5.3 nM; against GSK3B [1] it was 461 nM; at GSK3B [2] (read-out: Enzyme GSK3β (IC50)), 591 nM.

On to `Cc1cc(CC(=O)O)cc(C)c1-n1cnc(N)c(C(=O)Nc2cncc([C@H]3CCCCN3)c2)c1=O` [Example 207, (R)-2-(4-(4-amino-6-oxo-5-((5-(piperidin-2-yl)pyridin-3-yl)carbamoyl)pyrimidin-1 (6H)-yl)-3,5-dimethylphenyl) acetic acid], for which the IC50 against human GSK3α (Enzyme GSK3α (IC50)) came out at 5.3 nM; against GSK3A it was 966 nM; on GSK3B [1], 25000 nM; against GSK3B [2] (Enzyme GSK3β (IC50)), 234 nM.

As to `CCc1cc(C)c(-n2cnc(N)c(C(=O)Nc3cncc([C@@H](C)N)c3)c2=O)c(C)c1` (single isomer, unassigned) [Example 218, (R)-4-amino-N-(5-(1-aminoethyl)pyridin-3-yl)-1-(4-ethyl-2,6-dimethylphenyl)-6-oxo-1,6-dihydropyrimidine-5-carboxamide or (S)-4-amino-N-(5-(1-aminoethyl)pyridin-3-yl)-1-(4-ethyl-2,6-dimethylphenyl)-6-oxo-1,6-dihydropyrimidine-5-carboxamide], the IC50 on human GSK3α (read-out: Enzyme GSK3α (IC50)) is 10.8 nM; at GSK3A, 5.6 nM; against GSK3B [1], 401 nM; on GSK3B [2] (read-out: Enzyme GSK3β (IC50)), 421 nM.

Turning to `CCOc1cc(Cl)c(-n2cnc(N)c(C(=O)Nc3cncc(C(N)COC)c3)c2=O)c(Cl)c1` (single isomer, unassigned) [Example 134, (R)-4-amino-N-(5-(1-amino-2-methoxyethyl)pyridin-3-yl)-1-(2,6-dichloro-4-ethoxyphenyl)-6-oxo-1,6-dihydropyrimidine-5-carboxamide or (S)-4-amino-N-(5-(1-amino-2-methoxyethyl)pyridin-3-yl)-1-(2,6-dichloro-4-ethoxyphenyl)-6-oxo-1,6-dihydropyrimidine-5-carboxamide], the IC50 at human GSK3α (read-out: Enzyme GSK3α (IC50)) turned out to be 3.4 nM; against GSK3A, 3.2 nM; on GSK3B [1], 204 nM; on GSK3B [2] (read-out: Enzyme GSK3β (IC50)) it was 212 nM.

For the compound `Cc1cccc(Cl)c1-n1cnc(N)c(C(=O)Nc2cccc([C@@H]3CCCN3)c2F)c1=O` (single isomer, unassigned) [Example 217, (S)-4-amino-1-((S)-2-chloro-6-methylphenyl)-N-(2-fluoro-3-(pyrrolidin-2-yl)phenyl)-6-oxo-1,6-dihydropyrimidine-5-carboxamide or (R)-4-amino-1-((S)-2-chloro-6-methylphenyl)-N-(2-fluoro-3-(pyrrolidin-2-yl)phenyl)-6-oxo-1,6-dihydropyrimidine-5-carboxamide], the IC50 was found to be 7.8 nM on human GSK3α (read-out: Enzyme GSK3α (IC50)), 8 nM on GSK3A, 424 nM against GSK3B [1] and 305 nM at GSK3B [2] (read-out: Enzyme GSK3β (IC50)).
